Test results published in US8729074B2, “Inhibitors of PI3 kinase” (Amgen Inc., priority 2009, dated 2014).

Tested on: phosphorylation of Serine 473 in Akt in HCT 116 cells
Experiment: Cell-based phospho-Akt Ser473 assay (HCT 116 cell)
Settings: Homo sapiens; pAkt Ser473, HCT 116 cells, compound 2 hours, IGF-1 stimulation; average if run more than once; read-out: HCT116 Cell IC50
Excerpt: Cell-Based Phospho-Akt Ser473Assay (HCT 116 Cell)
This assay determines the ability of a compound to inhibit the phosphorylation of Serine 473 in Akt using a MSD based sandwich immunoassay (Meso Scale Detection, Meso Scale Discovery (MSD), Gaithersburg, Md.). HCT 116 human colon carcinoma cell lines can be grown in McCoy's 5A growth medium (GIBCO, Carlsbad, Calif.) containing 10% FBS (GIBCO, Carlsbad, Calif.) and X1 Penicillin-streptomycin-glutamine (GIBCO, Carlsbad, Calif.). Prior to the assay, cells can be detached from the culture flask with trypsin, and re-suspended in complete media to give a final concentration of 1.6×10^5 cells per mL. Aliquots (100 μl) of the HCT116 cell suspension can be seeded into each well of a 96 well tissue culture plate to give a final density of 16,000 cells per well. Cells can then be incubated overnight at 37° C.
The following day the cells can be treated with serially diluted test compounds and incubated for 2 hours at 37° C. The culture media on the HCT 116 cells can be replaced with 189 μL McCoys media, supplemented with 0.1% BSA (ICN Biomedicals, Inc., Costa Mesa, Calif.). Compounds can be prepared as either 10 mM or 0.5 mM stock solutions in DMSO, and serially diluted 3 fold in a 10-point dose-response curve to give final concentrations that are 200-fold greater than the desired final test concentration. […]
25 μL Cell lysate can then be transferred to pre-blocked MSD assay plates pre-coated with a capture antibody specific for Akt, and the plates can be incubated for 2 hours at room temperature. […] An aliquot of 150 μL of diluted MSD read buffer can then be applied to each well, and the electrochemiluminescent signal can be measured using a MSD SECTOR™ plate reader (Meso Scale Discovery, Gaithersburg, Md.). This instrument measures the intensity of emitted light to determine a quantitative measure of phosphorylated Akt in each well. The dose-response data obtained with each compound can be analyzed and the IC50 inhibition of Akt phosphorylation at Ser473 can be calculated. […]

SMILES | IC50
O=S(=O)(Nc1cc(-c2cnc3ccccn23)cnc1Cl)c1ccc(F)cc1 [Example 3, N-(2-Chloro-5-imidazo[1,2-a]pyridin-3-yl-3-pyridinyl)-4-fluorobenzenesulfonamide] | 352 nM
Cc1ccn2c(-c3cnc(Cl)c(NS(=O)(=O)c4ccc(F)cc4)c3)cnc2c1 [Example 4, N-(2-Chloro-5-(7-methylimidazo[1,2-a]pyridin-3-yl)-3-pyridinyl)-4-fluorobenzenesulfonamide] | 180 nM
O=S(=O)(Nc1cc(-c2cnc3ccc(Cl)nn23)cnc1Cl)c1ccc(F)cc1 [Example 25, N-(2-Chloro-5-(6-chloroimidazo[1,2-b]pyridazin-3-yl)pyridin-3-yl)-4-fluorobenzenesulfonamide] | 564 nM
